Measurements taken from ChEMBL document CHEMBL1126423, “Acid-catalyzed O-allylation of -hydroxy--amino acids: an entry into conformationally constrained dipeptide surrogates” (Bioorg Med Chem Lett, 1992).

Target: T1, Angiotensin-converting enzyme (Oryctolagus cuniculus, UniProt P12822)
T1 sequence (P12822 whole entry): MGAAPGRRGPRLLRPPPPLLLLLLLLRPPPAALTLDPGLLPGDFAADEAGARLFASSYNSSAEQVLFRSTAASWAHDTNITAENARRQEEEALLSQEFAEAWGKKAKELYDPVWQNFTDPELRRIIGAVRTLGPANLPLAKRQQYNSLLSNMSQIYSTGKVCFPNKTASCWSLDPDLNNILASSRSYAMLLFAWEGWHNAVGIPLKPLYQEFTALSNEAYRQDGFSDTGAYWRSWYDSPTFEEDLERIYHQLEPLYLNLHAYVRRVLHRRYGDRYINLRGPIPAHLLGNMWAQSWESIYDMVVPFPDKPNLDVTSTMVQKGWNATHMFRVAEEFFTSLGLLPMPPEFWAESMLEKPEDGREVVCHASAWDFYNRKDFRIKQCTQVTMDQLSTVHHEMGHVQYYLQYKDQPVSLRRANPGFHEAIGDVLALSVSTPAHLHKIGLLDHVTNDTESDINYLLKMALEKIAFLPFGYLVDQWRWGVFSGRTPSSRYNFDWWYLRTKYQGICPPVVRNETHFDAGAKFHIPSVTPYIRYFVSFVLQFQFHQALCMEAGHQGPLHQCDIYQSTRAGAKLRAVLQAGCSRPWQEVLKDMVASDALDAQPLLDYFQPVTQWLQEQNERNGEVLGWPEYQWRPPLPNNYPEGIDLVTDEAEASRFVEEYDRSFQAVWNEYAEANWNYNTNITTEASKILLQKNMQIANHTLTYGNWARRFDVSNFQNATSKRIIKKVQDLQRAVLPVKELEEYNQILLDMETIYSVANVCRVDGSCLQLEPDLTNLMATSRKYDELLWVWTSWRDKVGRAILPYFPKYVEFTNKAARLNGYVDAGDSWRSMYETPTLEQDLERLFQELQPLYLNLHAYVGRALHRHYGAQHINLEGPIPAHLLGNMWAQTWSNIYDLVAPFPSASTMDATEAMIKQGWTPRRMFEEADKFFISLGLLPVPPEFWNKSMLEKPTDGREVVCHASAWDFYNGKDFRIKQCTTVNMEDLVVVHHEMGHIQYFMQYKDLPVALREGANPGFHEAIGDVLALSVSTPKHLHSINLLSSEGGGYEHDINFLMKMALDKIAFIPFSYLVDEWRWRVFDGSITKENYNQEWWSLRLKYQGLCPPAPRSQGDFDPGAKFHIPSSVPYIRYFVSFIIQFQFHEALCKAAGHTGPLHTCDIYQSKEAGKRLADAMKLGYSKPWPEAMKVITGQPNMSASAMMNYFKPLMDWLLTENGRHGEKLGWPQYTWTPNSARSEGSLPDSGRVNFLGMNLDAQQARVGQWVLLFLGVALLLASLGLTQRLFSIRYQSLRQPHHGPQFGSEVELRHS
Test: Inhibitory concentration against rabbit lung Angiotensin I converting enzyme (ACE)

Question: O=C(O)[C@H](CCc1ccccc1)NC1Cc2ccccc2C2COC[C@H](C(=O)O)N2C1=O (stereo partly specified) was tested. Which IC50 did it give?
Answer: 0.09 nM
